Measurements as given in the NIST ThermoML archive (doi:10.1021/je900210h).
Where “and” joins values, the source holds several entries; their conditions need not be identical. Identical values can stand only once.

Conditions: Fluid (supercritical or subcritical phases), Coaxial cylinder method

FCC(F)(F)F [1,1,1,2-tetrafluoroethane]
Conditions | thermal conductivity
375.76 K, 4223 kPa | 0.0752 W/m/K
375.77 K, 4161 kPa | 0.0731 W/m/K
375.79 K, 4241 kPa | 0.0673 W/m/K
375.8 K, 3504 kPa | 0.029 W/m/K
375.8 K, 4150 kPa | 0.0656 W/m/K
375.81 K, 3534 kPa | 0.0279 W/m/K
375.82 K, 4254 kPa | 0.0627 W/m/K
375.83 K, 4141 kPa | 0.06 W/m/K
375.84 K, 4279 kPa | 0.0589 W/m/K
375.85 K, 4296 kPa | 0.0573 W/m/K
375.86 K, 4316 kPa | 0.0558 W/m/K
375.86 K, 4334 kPa | 0.0551 W/m/K
375.87 K, 3165 kPa | 0.0261 W/m/K
375.87 K, 3264 kPa | 0.0264 W/m/K
375.87 K, 4132 kPa | 0.0548 W/m/K
375.87 K, 4349 kPa | 0.0546 W/m/K
375.87 K, 4363 kPa | 0.0539 W/m/K
375.88 K, 4387 kPa | 0.0535 W/m/K
375.88 K, 4432 kPa | 0.0526 W/m/K
375.88 K, 4461 kPa | 0.0526 W/m/K and 0.0524 W/m/K
375.89 K, 4451 kPa | 0.0521 W/m/K
375.89 K, 4630 kPa | 0.052 W/m/K
375.9 K, 2970 kPa | 0.0251 W/m/K
375.92 K, 4120 kPa | 0.0485 W/m/K
375.93 K, 2700 kPa | 0.0265 W/m/K
375.94 K, 2662 kPa | 0.024 W/m/K
375.95 K, 2429 kPa | 0.0235 W/m/K
375.95 K, 3993 kPa | 0.0374 W/m/K
375.99 K, 3936 kPa | 0.0349 W/m/K
375.99 K, 4072 kPa | 0.0417 W/m/K
376.01 K, 3908 kPa | 0.034 W/m/K
376.02 K, 4205 kPa | 0.0817 W/m/K
376.02 K, 4207 kPa | 0.0822 W/m/K
376.02 K, 4209 kPa | 0.0826 W/m/K
376.02 K, 4213 kPa | 0.0826 W/m/K
376.02 K, 4217 kPa | 0.0821 W/m/K
376.03 K, 4203 kPa | 0.0807 W/m/K
376.03 K, 4222 kPa | 0.0806 W/m/K
376.03 K, 4225 kPa | 0.0797 W/m/K
376.04 K, 1048 kPa | 0.0214 W/m/K
376.04 K, 4039 kPa | 0.0379 W/m/K
376.04 K, 4200 kPa | 0.0784 W/m/K
376.04 K, 4230 kPa | 0.0774 W/m/K
376.04 K, 4233 kPa | 0.0766 W/m/K
376.05 K, 773 kPa | 0.0212 W/m/K
376.05 K, 4198 kPa | 0.0754 W/m/K
376.06 K, 524 kPa | 0.0208 W/m/K
376.06 K, 4011 kPa | 0.0362 W/m/K
376.06 K, 4242 kPa | 0.0737 W/m/K
376.07 K, 200 kPa | 0.0205 W/m/K
376.07 K, 4190 kPa | 0.0693 W/m/K
376.07 K, 4250 kPa | 0.0708 W/m/K
376.08 K, 3975 kPa | 0.0352 W/m/K
376.08 K, 4260 kPa | 0.0686 W/m/K
376.09 K, 4270 kPa | 0.0669 W/m/K
376.09 K, 4280 kPa | 0.0656 W/m/K
376.1 K, 3941 kPa | 0.0342 W/m/K
376.1 K, 4180 kPa | 0.0622 W/m/K
376.1 K, 4300 kPa | 0.0638 W/m/K
376.11 K, 3913 kPa | 0.0333 W/m/K
376.11 K, 4320 kPa | 0.0624 W/m/K
376.14 K, 5520 kPa | 0.054 W/m/K
376.14 K, 5651 kPa | 0.0543 W/m/K
376.14 K, 5740 kPa | 0.0545 W/m/K
376.15 K, 4789 kPa | 0.0527 W/m/K
376.15 K, 5037 kPa | 0.0529 W/m/K
376.15 K, 5092 kPa | 0.0531 W/m/K
376.15 K, 5216 kPa | 0.0534 W/m/K
376.15 K, 5296 kPa | 0.0536 W/m/K
376.16 K, 4754 kPa | 0.0523 W/m/K
376.19 K, 4160 kPa | 0.0503 W/m/K
376.21 K, 3800 kPa | 0.0312 W/m/K
376.21 K, 4150 kPa | 0.048 W/m/K
376.23 K, 2350 kPa | 0.0256 W/m/K
376.23 K, 3734 kPa | 0.0301 W/m/K
376.26 K, 4264 kPa | 0.081 W/m/K
376.26 K, 4360 kPa | 0.0608 W/m/K
376.26 K, 4390 kPa | 0.06 W/m/K
376.27 K, 4230 kPa | 0.0811 W/m/K
376.28 K, 4218 kPa | 0.0789 W/m/K
376.28 K, 4267 kPa | 0.0803 W/m/K
376.29 K, 4214 kPa | 0.078 W/m/K
376.29 K, 4279 kPa | 0.0786 W/m/K
376.31 K, 4210 kPa | 0.077 W/m/K
376.33 K, 3030 kPa | 0.0242 W/m/K
376.34 K, 4199 kPa | 0.074 W/m/K
376.34 K, 4305 kPa | 0.0746 W/m/K
376.38 K, 2200 kPa | 0.0252 W/m/K
376.38 K, 4192 kPa | 0.0712 W/m/K
376.4 K, 3872 kPa | 0.0323 W/m/K
376.41 K, 3872 kPa | 0.0317 W/m/K
